Results on 91 molecules are retold here after patent publication US8329675B2, “Inhibitors of fatty acid amide hydrolase” (Infinity Pharmaceuticals, Inc., priority 2006, dated 2012).

For the assay, the target named is T1, human FAAH (Homo sapiens, UniProt O00519).
T1 construct: host or cells: COS-7 cells, transient transfection; 13,000 g membrane fraction solubilised in 1% Triton X-100
T1 sequence (O00519 1-579): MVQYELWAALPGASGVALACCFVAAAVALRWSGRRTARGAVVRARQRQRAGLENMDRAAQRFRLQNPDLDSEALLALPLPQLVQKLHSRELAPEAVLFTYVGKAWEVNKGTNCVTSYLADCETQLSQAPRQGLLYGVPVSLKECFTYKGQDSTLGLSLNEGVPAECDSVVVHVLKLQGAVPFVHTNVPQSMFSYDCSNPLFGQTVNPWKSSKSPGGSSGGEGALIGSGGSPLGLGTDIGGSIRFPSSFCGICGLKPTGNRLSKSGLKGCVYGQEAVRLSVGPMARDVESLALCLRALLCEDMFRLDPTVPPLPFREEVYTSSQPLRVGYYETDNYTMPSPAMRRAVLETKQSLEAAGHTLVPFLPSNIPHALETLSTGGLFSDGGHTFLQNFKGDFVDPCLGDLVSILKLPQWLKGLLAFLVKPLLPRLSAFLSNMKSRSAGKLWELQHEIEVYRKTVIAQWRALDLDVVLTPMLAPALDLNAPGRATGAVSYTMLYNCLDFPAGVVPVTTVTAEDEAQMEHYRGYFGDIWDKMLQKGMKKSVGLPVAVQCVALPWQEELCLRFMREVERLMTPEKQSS
The experiment in a line: Human FAAH biochemical inhibition assay (AMC arachidonoyl amide fluorescence). The note with it: Table 2, human FAAH (no asterisk); read-out: Activity (Ki). The method, boiled down:
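Solubilized membrane fraction from COS-7 cells transfected with human FAAH, used at a final 0.05 mg/ml in 50 mM Hepes pH 7.5, 1 mM EDTA, 0.2% Triton X-100. Inhibitor pre-incubated 30 min at room temperature; 20 uM final AMC arachidonoyl amide added, reaction run 4 h at room temperature, fluorescence read.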
With `OB(O)c1ccc(COCc2cccc(C(F)(F)F)c2)cc1F` [II-72], the inhibitory constant (Ki) was less than 10 nM.
The same measure for `OB(O)c1ccc2sc(COc3ccccc3)cc2c1` [II-73]: less than 10 nM.
The same measure for `OB(O)c1ccc(COCc2ccccc2C(F)(F)F)cc1F` [II-74]: less than 10 nM; for `c1ccc(Oc2ccc(B(Oc3cccc4cccnc34)c3ccccc3)cc2)cc1` [II-75]: less than 10 nM; for `O=C(CCCc1ccc(B(O)O)cc1)c1ccccc1` [II-76]: less than 10 nM.
Under `OB(O)c1ccc(-c2cnco2)cc1` [II-77] stands 10 to 100 nM.
Turning to `CN(C)c1cccc(Oc2ccc(B(O)O)cc2)c1` [II-78], the Ki was less than 10 nM.
Under `[O-][S+](Cc1ccc(B(O)O)c(F)c1)c1ccccc1` (stereo not shown) [II-79] stands greater than 1000 nM; under `O=S(=O)(Cc1ccccc1)Cc1ccc(B(O)O)c(F)c1` [II-80], greater than 1000 nM; under `[O-][S+](Cc1ccccc1)Cc1ccc(B(O)O)c(F)c1` (stereo not shown) [II-81], 10 to 1000 nM.
Under `OB(O)c1ccc(Cc2ccccc2)cc1` [II-82] stands less than 10 nM; under `OB(c1ccccc1)c1ccccc1` [II-83], greater than 1000 nM; under `OB(O)c1ccc(C(O)c2ccccc2)cc1` (stereo not shown) [II-84], 10 to 100 nM.
Under `OB(O)c1ccc(Oc2cccc(F)c2)c(F)c1` [II-85] stands less than 10 nM; under `C[N+]12CC(=O)O[B-]1(c1ccc(-c3cccc(F)c3)cc1F)OC(=O)C2` (stereo not shown) [II-86], less than 10 nM; under `CNc1cc(B(O)O)cc(C(=O)O)c1` [II-87], greater than 1000 nM.
For `CN(C)c1cc(B(O)O)cc(C(=O)O)c1` [II-88], the inhibition constant Ki was greater than 1000 nM.
`CN(Cc1ccccc1)Cc1ccc(B(O)O)c(F)c1` [II-90]: the Ki lay in the range of 10 to 100 nM.
Consider `OB(O)c1ccc(CN2CCc3ccccc32)cc1F` [II-91], for which the Ki is less than 10 nM.
Under `OB(O)c1ccc(OCCC2CCCCC2)cc1F` [II-92] stands less than 10 nM.
Under `OB(O)c1ccc(COC2C3CC4CC(C3)CC2C4)cc1` (stereo not shown) [II-93] stands 10 to 100 nM.
Turning to `OB(O)c1ccc(COCc2ccccc2-c2ccccc2)cc1` [II-94], the Ki was 10 to 100 nM.
Under `OB(O)c1ccc2c(c1)CCC(OCc1ccccc1)C2` (stereo not shown) [II-95] stands less than 10 nM; under `O=C(N[C@H](COc1ccc(B(O)O)c(F)c1)Cc1ccccc1)c1ccccc1` [II-96], 10 to 100 nM.
The same measure for `CN(Cc1ccccc1)[C@H](COc1ccc(B(O)O)c(F)c1)Cc1ccccc1` [II-97]: 10 to 1000 nM; for `CN(C)[C@H](COc1ccc(B(O)O)c(F)c1)Cc1ccccc1` [II-98]: greater than 1000 nM; for `OB(O)Cc1ccc(-c2ccccc2)cc1` [II-99]: greater than 1000 nM.
For `OB(O)c1ccc(COCC2CCCCC2)cc1` [II-100], the inhibition constant (Ki) was 10 to 100 nM.
The same measure for `OB(O)c1ccc(COCC23CC4CC(CC(C4)C2)C3)cc1` [II-101]: 10 to 100 nM; for `OB(O)c1ccc(COCC2CCCCO2)cc1` (stereo not shown) [II-102]: 10 to 100 nM.
Take `CN(C)[C@@H](COc1ccc(B(O)O)c(F)c1)Cc1ccccc1` [II-103]: the Ki is greater than 1000 nM.
The same measure for `OB(O)c1ccc2oc(COc3ccccc3)cc2c1` [II-104]: less than 10 nM.
Take `O=C(N[C@@H](COc1ccc(B(O)O)c(F)c1)Cc1ccccc1)c1ccccc1` [II-105]: the Ki is 10 to 1000 nM.
The same measure for `CN(Cc1ccccc1)[C@@H](COc1ccc(B(O)O)c(F)c1)Cc1ccccc1` [II-106]: 10 to 1000 nM; for `CC(C)(C)OC(=O)N1CCC[C@H]1COCc1ccc(B(O)O)cc1` [II-107]: 10 to 100 nM; for `OB(O)c1ccc(OC[C@@H](COCc2ccccc2)OCc2ccccc2)cc1F` [II-108]: 10 to 100 nM.
The same measure for `OB(O)c1ccc(OCCc2cccnc2)cc1F` [II-109]: less than 10 nM.
In the case of `OB(O)c1ccc(OCCc2ccncc2)cc1F` [II-110], the Ki was less than 10 nM.
With `OB(O)c1ccc(COCc2cccc3ccccc23)cc1` [II-111], the Ki is less than 10 nM.
Under `CN(Cc1ccc(B(O)O)c2ccccc12)c1ccccc1` [II-112] stands greater than 1000 nM; under `OB(O)c1cccc(OCCc2ccccc2)c1` [II-113], 10 to 100 nM; under `OB(O)c1cccc(Oc2ccccc2)c1` [II-114], less than 10 nM.
Under `OB(O)c1cccc(OCCCc2ccccc2)c1` [II-115] stands 10 to 100 nM.
Under `CCO/N=C(\c1ccccc1)c1ccc(B(O)O)cc1` [II-116] stands 10 to 100 nM; under `OB(O)c1ccc(CCOc2ccccc2)cc1` [II-117], 10 to 100 nM; under `OB(O)c1ccc(CNc2cccc3ccccc23)cc1` [II-118], greater than 1000 nM.
As for `OB(O)c1ccc(COc2cccc3ccccc23)cc1` [II-119], the inhibitory constant (Ki) was less than 10 nM.
The same measure for `OB(O)c1ccc(OCCCOc2ccccn2)cc1` [II-120]: 10 to 100 nM; for `OB(O)c1cccc(CCOc2ccccc2)c1` [II-121]: 10 to 100 nM.
The same measure for `O=c1ccccn1CCCOc1ccc(B(O)O)cc1` [II-122]: 10 to 100 nM; for `OB(O)c1ccc(COC2CCCc3ccccc32)cc1` (stereo not shown) [II-123]: 10 to 100 nM.
The same measure for `OB(O)c1ccc(COC2CCc3ccccc32)cc1` (stereo not shown) [II-124]: less than 10 nM.
For `Cn1ccc2cc(B(O)O)ccc21` [II-125], the inhibition constant (Ki) was greater than 1000 nM.
Under `CC(OCc1ccc(B(O)O)cc1)c1ccccc1` (stereo not shown) [II-126] stands less than 10 nM; under `OB(O)c1ccc(COC2CCCCC2)cc1` [II-127], less than 10 nM.
`OB(O)c1ccc(OCCCOc2ccccc2)cc1` [II-128]: the inhibitory constant (Ki) is less than 10 nM.
In the case of `OB(O)c1ccc(OCCOc2ccccc2)cc1` [II-129], the inhibitory constant (Ki) is less than 10 nM.
As to `C/C(=N\OCc1ccccc1)c1ccc(B(O)O)cc1` [II-130], the Ki is less than 10 nM.
The same measure for `CN(Cc1ccccc1)Cc1ccc(B(O)O)cc1` [II-131]: less than 10 nM.
`OB(O)c1ccc(COCc2ccccc2)cc1` [II-132]: the Ki was less than 10 nM.
Under `CC(C)(C)OC(=O)n1cncc1COc1ccc(B2OC(C)(C)C(C)(C)O2)c(F)c1` [II-133] stands less than 10 nM.
Under `OB(O)c1ccc(OCc2ccn[nH]2)cc1F` [II-134] stands 10 to 100 nM; under `OB(O)c1ccc(OCc2cnco2)cc1F` [II-135], 10 to 100 nM; under `CC(Cc1ccccc1)Oc1ccc(B(O)O)c(F)c1` (stereo not shown) [II-136], less than 10 nM.
Under `C[C@H](COc1ccc(B(O)O)c(F)c1)c1ccccc1` [II-137] stands less than 10 nM; under `OB(O)c1ccc(OC2Cc3ccccc3C2)cc1F` [II-138], less than 10 nM; under `C[C@@H](COc1ccc(B(O)O)c(F)c1)c1ccccc1` [II-139], less than 10 nM.
As to `O=C(COc1ccc(B(O)O)c(F)c1)c1ccccc1` [II-140], the Ki is less than 10 nM.
For the molecule `CN(Cc1ccc(B(O)O)cc1)c1ccccc1` [II-141], the inhibitory constant (Ki) is less than 10 nM.
The same measure for `OB(O)c1ccc(CN2CCc3ccccc32)cc1` [II-142]: less than 10 nM; for `OB(O)c1ccc(CN2CCCc3ccccc32)cc1` [II-143]: less than 10 nM.
Take `O=C1c2ccc(B(O)O)cc2C(=O)N1c1ccccc1` [II-144]: the Ki is 10 to 100 nM.
The same measure for `OB(O)c1ccc(Cn2ccc3ccccc32)cc1` [II-145]: less than 10 nM; for `Cc1cc(COc2ccc(B(O)O)c(F)c2)ccc1F` [II-146]: less than 10 nM; for `CC1(C)OB(c2ccc(OCc3ccn[nH]3)cc2F)OC1(C)C` [II-147]: 10 to 100 nM.
The same measure for `CC1(C)OB(c2ccc(OCc3cnco3)cc2F)OC1(C)C` [II-148]: 10 to 100 nM; for `OB(O)c1ccc(Oc2cccnc2)cc1F` [II-149]: less than 10 nM.
Under `CC1(C)OB(c2ccc(Oc3cccnc3)cc2F)OC1(C)C` [II-150] stands less than 10 nM; under `O=C(OCc1ccccc1)c1cc(Oc2cccc(F)c2)ccc1B(O)O` [II-151], 10 to 1000 nM.
With `OB(O)c1ccc(CNc2ccccc2)cc1` [II-152], the Ki is less than 10 nM.
Under `CC1(C)OB(c2ccc(Cn3ccc4ccccc43)cc2)OC1(C)C` [II-153] stands less than 10 nM; under `CC1(C)OB(c2ccc(CNc3ccccc3)cc2)OC1(C)C` [II-154], less than 10 nM.
Under `O=C(c1ccc(B(O)O)cc1)N(Cc1ccccc1)c1ccccc1` [II-155] stands 10 to 100 nM.
Under `OB(O)c1ccc(OCCCc2ccccc2)cc1F` [II-156] stands less than 10 nM; under `OB(O)c1ccc(CN(Cc2ccccc2)Cc2ccccc2)cc1` [II-157], 10 to 1000 nM; under `OB(O)c1ccc(CN(c2ccccc2)c2ccccc2)cc1` [II-158], greater than 1000 nM.
As to `OB(O)c1ccc(OCc2cncs2)cc1F` [II-159], the Ki was in the range of 10 to 100 nM.
Under `OB(O)c1ccc(OCc2cccnc2)cc1F` [II-160] stands 10 to 100 nM; under `CC1(C)OB(c2ccc(OCc3cccnc3)cc2F)OC1(C)C` [II-161], 10 to 100 nM; under `Nc1cc(Oc2cccc(F)c2)ccc1B(O)O` [II-162], greater than 1000 nM.
Under `CN(Cc1ccccc1)C(=O)c1ccc(B(O)O)cc1` [II-163] stands 10 to 100 nM.
